For 14 molecules, EC50 and IC50 results are on record in patent US20230339981A1, “KRAS G12D MODULATING COMPOUNDS” (priority 2022, published 2023).

Some results are limits rather than exact numbers.

For one assay, the system named is AsPC-1 (KRAS G12D) cells. The assay is described as follows: 3D cell viability assay (spheroids, CellTiter-Glo 3D). The format is cell-based. Conditions: Homo sapiens, ASPC1, 96 h, AsPC-1 cells, 3D spheroids, 4 days. A digest of the protocol: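 AsPC-1 cells (1000/well) in DMEM with 10% FBS formed spheroids over 3 days at 37 °C in ultra-low attachment plates, then were treated with 1:3 serial dilutions for 4 days. Viability read by CellTiter-Glo 3D luminescence; EC50 as concentration giving 50% signal decrease, sigmoidal fit.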
Background: Cellular ATP, detected with luciferase, serves as a proxy for viable cell number.

For a further assay, the system named is GP2D (KRAS G12D) cells. Nature of the assay: 2D cell viability assay (CellTiter-Glo). Format: cell-based. To be noted: GP2d, 96 h, 4 days. In a few lines:
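Viability was read by CellTiter-Glo after 4 days at 37 °C of 2D culture of KRAS G12D GP2D cells (1000/well, RPMI, 10% FBS) on pre-spotted threefold compound dilutions. EC50 was fitted with a sigmoidal dose-response model as the point of half-maximal luminescence loss.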

The target in a further assay is GDP-loaded KRAS G12D (Homo sapiens (Human), UniProt P01116, G12D). Nature of the assay: KRAS G12D (GDP) biochemical assay (TR-FRET probe displacement). Conditions: 2 hours. Format: binding. A digest of the protocol:
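TR-FRET probe displacement: 1:3 DMSO serial dilutions pre-incubated 30 min with GDP-bound KRAS G12D, followed by Eu-streptavidin/probe for 2 h at room temperature (Hepes pH 7.4, NaCl, MgCl2, Tween-20 buffer). IC50 defined as concentration halving TR-FRET ratio, from sigmoidal dose-response fit.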
Background: Time-resolved FRET reads energy transfer from a long-lived donor to a nearby acceptor.

Chain of GDP-loaded KRAS G12D (P01116-2 other isoform, or with tags, fused parts or gaps G12D): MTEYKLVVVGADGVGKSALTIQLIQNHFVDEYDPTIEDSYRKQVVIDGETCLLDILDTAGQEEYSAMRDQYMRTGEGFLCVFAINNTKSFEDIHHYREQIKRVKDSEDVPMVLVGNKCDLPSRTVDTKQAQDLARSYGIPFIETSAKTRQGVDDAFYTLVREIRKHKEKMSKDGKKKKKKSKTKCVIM

One may read the EC50 as the concentration needed to bring the measured effect to its halfway point. Low readings indicate a more potent agent, high ones a less potent agent. The IC50 is the concentration needed to halve the response being measured. For `C#Cc1c(F)ccc2cc(O)cc(-c3nc4c5c(nc(OC[C@@]67CCCN6[C@H](CF)CC7)nc5c3F)N3C[C@H]5CC[C@H](N5)[C@H]3CC4)c12` [Example 165, 5-ethynyl-6-fluoro-4-((5aR,6S,9R)-1-fluoro-12-(((3S,7aS)-3-(fluoromethyl)tetrahydro-1H-pyrrolizin-7a(5H)-yl)methoxy)-4,5,5a,6,7,8,9,10-octahydro-3,10a,11,13,14-pentaaza-6,9-methanonaphtho[1,8-ab]heptalen-2-yl)naphthalen-2-ol], the figures for the EC50 in the assay with AsPC-1 (KRAS G12D) cells and with GP2D (KRAS G12D) cells were 3.9 nM and 0.7 nM, respectively. Also, at GDP-loaded KRAS G12D, the IC50 was < 0.1 nM.

Regarding `C#Cc1c(F)ccc2cccc(-c3nc4c5c(nc(OC[C@@]67CCCN6[C@H](CF)CC7)nc5c3F)N3C[C@H]5CC[C@H](N5)[C@H]3CC4)c12` [Example 166, (5aR,6S,9R)-2-(8-ethynyl-7-fluoronaphthalen-1-yl)-1-fluoro-12-(((3S,7aS)-3-(fluoromethyl)tetrahydro-1H-pyrrolizin-7a(5H)-yl)methoxy)-4,5,5a,6,7,8,9,10-octahydro-3,10a,11,13,14-pentaaza-6,9-methanonaphtho[1,8-ab]heptalene], the EC50 was 110 nM in the assay with AsPC-1 (KRAS G12D) cells and 3.5 nM with GP2D (KRAS G12D) cells. The molecule further gave an IC50 at GDP-loaded KRAS G12D of 0.3 nM.

For `C#Cc1c(F)ccc2cc(O)cc(-c3nc4c5c(nc(OCC6(CN7CCC(CC(F)(F)F)CC7)CC6)nc5c3F)N3C[C@H]5CC[C@H](N5)[C@H]3CC4)c12` [Example 167, 5-ethynyl-6-fluoro-4-((5aR,6S,9R)-1-fluoro-12-((1-((4-(2,2,2-trifluoroethyl)piperidin-1-yl)methyl)cyclopropyl)methoxy)-4,5,5a,6,7,8,9,10-octahydro-3,10a,11,13,14-pentaaza-6,9-methanonaphtho[1,8-ab]heptalen-2-yl)naphthalen-2-ol], the EC50 with AsPC-1 (KRAS G12D) cells worked out at 32 nM; in the assay on GP2D (KRAS G12D) cells it was 0.7 nM. In addition, at GDP-loaded KRAS G12D, the IC50 was < 0.1 nM.

As for `C#Cc1c(F)ccc2cc(O)cc(-c3nc4c5c(nc(OCC6(CN7CCC(OC)(C(F)(F)F)CC7)CC6)nc5c3F)N3C[C@H]5CC[C@H](N5)[C@H]3CC4)c12` [Example 168, 5-ethynyl-6-fluoro-4-((5aR,6S,9R)-1-fluoro-12-((1-((4-methoxy-4-(trifluoromethyl)piperidin-1-yl)methyl)cyclopropyl)methoxy)-4,5,5a,6,7,8,9,10-octahydro-3,10a,11,13,14-pentaaza-6,9-methanonaphtho[1,8-ab]heptalen-2-yl)naphthalen-2-ol], the EC50 in the assay with AsPC-1 (KRAS G12D) cells was determined as 24 nM; with GP2D (KRAS G12D) cells, 0.5 nM. On GDP-loaded KRAS G12D, the IC50 is 0.2 nM.

Turning to `C#Cc1c(F)ccc2cccc(-c3nc4c5c(nc(OC[C@@]67CCCN6C[C@H](F)C7)nc5c3F)N3C[C@H]5CC[C@H](N5)[C@H]3[C@H](CC)O4)c12` [Example 169, (5S,5aS,6S,9R)-5-ethyl-2-(8-ethynyl-7-fluoronaphthalen-1-yl)-1-fluoro-12-(((2R,7aS)-2-fluorotetrahydro-1H-pyrrolizin-7a(5H)-yl)methoxy)-5a,6,7,8,9,10-hexahydro-5H-4-oxa-3,10a,11,13,14-pentaaza-6,9-methanonaphtho[1,8-ab]heptalene], the EC50 with AsPC-1 (KRAS G12D) cells is 190 nM; in the assay with GP2D (KRAS G12D) cells, 26.5 nM. For the same molecule, the IC50 at GDP-loaded KRAS G12D came out at 0.8 nM.

Turning to `C#Cc1c(F)ccc2cccc(-c3nc4c5c(nc(OC[C@@]67CCCN6C[C@H](F)C7)nc5c3F)N3C[C@H]5CC[C@H](N5)[C@@H]3CC4)c12` [Example 170, (5aS,6S,9R)-2-(8-ethynyl-7-fluoronaphthalen-1-yl)-1-fluoro-12-(((2R,7aS)-2-fluorotetrahydro-1H-pyrrolizin-7a(5H)-yl)methoxy)-4,5,5a,6,7,8,9,10-octahydro-3,10a,11,13,14-pentaaza-6,9-methanonaphtho[1,8-ab]heptalene], the EC50 in the assay on AsPC-1 (KRAS G12D) cells is > 1000 nM; in the assay on GP2D (KRAS G12D) cells, 100 nM. This molecule displayed a half-inhibitory concentration (IC50) on GDP-loaded KRAS G12D of 18.1 nM.

Regarding `C#Cc1c(F)ccc2cccc(-c3nc4c5c(nc(OC[C@@]67CCCN6C[C@H](F)C7)nc5c3F)N3C[C@H]5CC[C@H](N5)[C@H]3CC[C@H]4C)c12` [Example 171, (4R,6aR,7S,10R)-2-(8-ethynyl-7-fluoronaphthalen-1-yl)-1-fluoro-13-(((2R,7aS)-2-fluorotetrahydro-1H-pyrrolizin-7a(5H)-yl)methoxy)-4-methyl-5,6,6a,7,8,9,10,11-octahydro-4H-3,11a,12,14,15-pentaaza-7,10-methanocyclohepta[4,5]cycloocta[1,2,3-de]naphthalene], the results for the EC50 in the assay with AsPC-1 (KRAS G12D) cells and in the assay on GP2D (KRAS G12D) cells were 120 nM and 1.9 nM, respectively. For the same molecule, the IC50 at GDP-loaded KRAS G12D is < 0.1 nM.

`C#Cc1c(F)ccc2cccc(-c3nc4c5c(nc(OC[C@@]67CCCN6C[C@H](F)C7)nc5c3F)N3C[C@H]5CC[C@H](N5)[C@H]3C[C@@H]4F)c12` [Example 172, (4S,5aR,6S,9R)-2-(8-ethynyl-7-fluoronaphthalen-1-yl)-1,4-difluoro-12-(((2R,7aS)-2-fluorotetrahydro-1H-pyrrolizin-7a(5H)-yl)methoxy)-4,5,5a,6,7,8,9,10-octahydro-3,10a,11,13,14-pentaaza-6,9-methanonaphtho[1,8-ab]heptalene]: the EC50 stood at 480 nM in the assay on AsPC-1 (KRAS G12D) cells and 65.3 nM in the assay with GP2D (KRAS G12D) cells. For the same molecule, the IC50 at GDP-loaded KRAS G12D came to 3.5 nM.

In the case of `C#Cc1c(F)ccc2cccc(-c3nc4c5c(nc(OC[C@@]67CCCN6C[C@H](F)C7)nc5c3F)N3C[C@H]5CC[C@H](N5)[C@H]3C[C@H]4F)c12` [Example 173, (4R,5aR,6S,9R)-2-(8-ethynyl-7-fluoronaphthalen-1-yl)-1,4-difluoro-12-(((2R,7aS)-2-fluorotetrahydro-1H-pyrrolizin-7a(5H)-yl)methoxy)-4,5,5a,6,7,8,9,10-octahydro-3,10a,11,13,14-pentaaza-6,9-methanonaphtho[1,8-ab]heptalene], the results for the concentration giving a half-maximal response (EC50) in the assay on AsPC-1 (KRAS G12D) cells and in the assay on GP2D (KRAS G12D) cells were 100 nM and 4.2 nM, respectively. Also, the IC50 on GDP-loaded KRAS G12D was < 0.1 nM.

As to `C#Cc1c(F)ccc2cccc(-c3nc4c5c(nc(OC[C@@]67CCCN6C[C@H](F)C7)nc5c3F)N3C[C@H]5CC[C@H](N5)[C@H]3C[C@@H]4CC)c12` [Example 175, (4S,5aR,6S,9R)-4-ethyl-2-(8-ethynyl-7-fluoronaphthalen-1-yl)-1-fluoro-12-(((2R,7aS)-2-fluorotetrahydro-1H-pyrrolizin-7a(5H)-yl)methoxy)-4,5,5a,6,7,8,9,10-octahydro-3,10a,11,13,14-pentaaza-6,9-methanonaphtho[1,8-ab]heptalene], the EC50 is 150 nM in the assay with AsPC-1 (KRAS G12D) cells and 11.9 nM in the assay on GP2D (KRAS G12D) cells. The same molecule registered an IC50 at GDP-loaded KRAS G12D of 0.5 nM.

As for `C#Cc1c(F)ccc2cc(O)cc(-c3nc4c5c(nc(OCC6(CN7CC8CC8C7)CC6)nc5c3F)N3C[C@H]5CC[C@H](N5)[C@H]3CC4)c12` (stereo partly drawn) [Example 176, 4-((5aR,6S,9R)-12-((1-((3-azabicyclo[3.1.0]hexan-3-yl)methyl)cyclopropyl)methoxy)-1-fluoro-4,5,5a,6,7,8,9,10-octahydro-3,10a,11,13,14-pentaaza-6,9-methanonaphtho[1,8-ab]heptalen-2-yl)-5-ethynyl-6-fluoronaphthalen-2-ol], the figures for the EC50 with AsPC-1 (KRAS G12D) cells and with GP2D (KRAS G12D) cells were 9.8 nM and 0.4 nM, respectively. On GDP-loaded KRAS G12D, this molecule displayed an IC50 of 0.1 nM.

`C#Cc1c(F)ccc2cc(O)cc(-c3nc4c5c(nc(OCC6(CN7CC8CC(C8)C7)CC6)nc5c3F)N3C[C@H]5CC[C@H](N5)[C@H]3CC4)c12` [Example 179, 4-((5aR,6S,9R)-12-((1-((3-azabicyclo[3.1.1]heptan-3-yl)methyl)cyclopropyl)methoxy)-1-fluoro-4,5,5a,6,7,8,9,10-octahydro-3,10a,11,13,14-pentaaza-6,9-methanonaphtho[1,8-ab]heptalen-2-yl)-5-ethynyl-6-fluoronaphthalen-2-ol]: the values for the EC50 in the assay with AsPC-1 (KRAS G12D) cells and with GP2D (KRAS G12D) cells were 7.7 nM and 0.4 nM, respectively. For the same molecule, the IC50 at GDP-loaded KRAS G12D is 0.1 nM.

In the case of `C#Cc1c(F)ccc2cc(O)cc(-c3nc4c5c(nc(OC[C@@]67CCCN6[C@H](COC(C(F)(F)F)(C(F)(F)F)C(F)(F)F)CC7)nc5c3F)N3C[C@H]5CC[C@H](N5)[C@H]3CCC4)c12` [Example 181, 5-ethynyl-6-fluoro-4-((6aR,7S,10R)-1-fluoro-13-(((3S,7aS)-3-(((1,1,1,3,3,3-hexafluoro-2-(trifluoromethyl)propan-2-yl)oxy)methyl)tetrahydro-1H-pyrrolizin-7a(5H)-yl)methoxy)-5,6,6a,7,8,9,10,11-octahydro-4H-3,11a,12,14,15-pentaaza-7,10-methanocyclohepta[4,5]cycloocta[1,2,3-de]naphthalen-2-yl)naphthalen-2-ol], the EC50 with AsPC-1 (KRAS G12D) cells amounted to 6.9 nM; with GP2D (KRAS G12D) cells it was 0.3 nM. The molecule further returned an IC50 on GDP-loaded KRAS G12D of 0.5 nM.

Consider `C#Cc1c(F)ccc2cccc(-c3nc4c5c(nc(OC[C@@]67CCCN6C[C@H](F)C7)nc5c3F)N3C[C@H]5CC[C@H](N5)[C@H]3[C@@H](C)C4)c12` [Example 183, (5S,5aR,6S,9R)-2-(8-ethynyl-7-fluoronaphthalen-1-yl)-1-fluoro-12-(((2R,7aS)-2-fluorotetrahydro-1H-pyrrolizin-7a(5H)-yl)methoxy)-5-methyl-4,5,5a,6,7,8,9,10-octahydro-3,10a,11,13,14-pentaaza-6,9-methanonaphtho[1,8-ab]heptalene], for which the EC50 worked out at 270 nM with AsPC-1 (KRAS G12D) cells and 63 nM in the assay on GP2D (KRAS G12D) cells. For the same molecule, the IC50 on GDP-loaded KRAS G12D was determined as 1.9 nM.
